From ChEMBL document CHEMBL1201861, “Genomics of Drug Sensitity in Cancer screening data, Wellcome Trust Sanger Institute”

Columns and labels:
Experiment in all cases: cells
EHEB = type: functional, cell-based; settings: Homo sapiens;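 note: growth inhibition of human EHEB cells, read out with a cell viability assay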
Description: SANGER: Inhibition of human EHEB cell growth in a cell viability assay.

HC-1 = type: functional, cell-based, Homo sapiens; settings: Homo sapiens, HC-1;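 note: growth inhibition of HC-1 cells measured by a cell viability assay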
Description: SANGER: Inhibition of human HC-1 cell growth in a cell viability assay.

KMOE-2 = type: functional, cell-based, Homo sapiens; settings: Homo sapiens, KMOE-2;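 note: growth inhibition of human KMOE-2 cells, read out with a cell viability assay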
Description: SANGER: Inhibition of human KMOE-2 cell growth in a cell viability assay.

KMS-12-PE = type: functional, cell-based, Homo sapiens; settings: Homo sapiens, KMS-12-PE;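 note: growth inhibition of human KMS-12-PE cells, measured with a cell viability assay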
Description: SANGER: Inhibition of human KMS-12-PE cell growth in a cell viability assay.

LC4-1 = type: functional, cell-based, Homo sapiens; settings: Homo sapiens, LC4-1;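 note: growth inhibition of LC4-1 cells, read out with a cell viability assay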
Description: SANGER: Inhibition of human LC4-1 cell growth in a cell viability assay.

MDA-MB-134-VI = type: functional, cell-based, Homo sapiens; settings: Homo sapiens, MDA-MB-134-VI
Description: SANGER: Inhibition of human MDA-MB-134-VI cell growth in a cell viability assay.

NB7 = type: functional, cell-based, Homo sapiens; settings: Homo sapiens, NB7;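 note: growth inhibition of NB7 cells, read out with a cell viability assay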
Description: SANGER: Inhibition of human NB7 cell growth in a cell viability assay.

NCI-H1436 = type: functional, cell-based, Homo sapiens; settings: Homo sapiens, NCI-H1436;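 note: growth suppression of human NCI-H1436 cells, determined with a cell viability readout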
Description: SANGER: Inhibition of human NCI-H1436 cell growth in a cell viability assay.

NCI-H510A = type: functional, cell-based, Homo sapiens; settings: Homo sapiens, NCI-H510A;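 note: growth inhibition of NCI-H510A cells, read out with a cell viability assay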
Description: SANGER: Inhibition of human NCI-H510A cell growth in a cell viability assay.

NCI-H716 = type: functional, cell-based, Homo sapiens; settings: Homo sapiens, NCI-H716;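 note: growth inhibition of human NCI-H716 cells, measured by a cell viability assay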
Description: SANGER: Inhibition of human NCI-H716 cell growth in a cell viability assay.

P31-FUJ = type: functional, cell-based, Homo sapiens; settings: Homo sapiens, P31-FUJ;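 note: growth inhibition of P31-FUJ cells, read out with a viability assay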
Description: SANGER: Inhibition of human P31-FUJ cell growth in a cell viability assay.

SR = type: functional, cell-based, Homo sapiens; settings: Homo sapiens, SR
Description: SANGER: Inhibition of human SR cell growth in a cell viability assay.

THP-1 = type: functional, cell-based, Homo sapiens; settings: Homo sapiens, THP-1;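 note: growth inhibition of THP-1 cells, read out via a cell viability assay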
Description: SANGER: Inhibition of human THP-1 cell growth in a cell viability assay.

COLO-741 = type: functional, cell-based; settings: Homo sapiens
Description: SANGER: Inhibition of human COLO-741 cell growth in a cell viability assay.

CP50-MEL-B = type: functional, cell-based; settings: Homo sapiens;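 note: growth inhibition of the human cell line, measured with a cell viability read-out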
Description: SANGER: Inhibition of human CP50-MEL-B cell growth in a cell viability assay.

Ca-Ski = type: functional, cell-based; settings: Homo sapiens;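 note: cell viability assay measuring inhibition of Ca-Ski cell growth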
Description: SANGER: Inhibition of human Ca-Ski cell growth in a cell viability assay.

DU-145 = type: functional, cell-based; settings: Homo sapiens
Description: SANGER: Inhibition of human DU-145 cell growth in a cell viability assay.

FTC-133 = type: functional, cell-based; settings: Homo sapiens
GAMG = type: functional, cell-based; settings: Homo sapiens;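 note: cell growth inhibition measured by a viability assay in the GAMG human cell line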
Description: SANGER: Inhibition of human GAMG cell growth in a cell viability assay.

HCC1569 = type: functional, cell-based; settings: Homo sapiens;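 note: growth inhibition of human HCC1569 cells, read out with a cell viability assay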
Description: SANGER: Inhibition of human HCC1569 cell growth in a cell viability assay.

HCC1954 = type: functional, cell-based; settings: Homo sapiens;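 note: growth inhibition of human HCC1954 cells, read out with a cell viability assay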
Description: SANGER: Inhibition of human HCC1954 cell growth in a cell viability assay.

HCC38 = type: functional, cell-based; settings: Homo sapiens;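 note: cell viability assay on the human HCC38 cell line, with IC50 marking the concentration that inhibits cell growth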
Description: SANGER: Inhibition of human HCC38 cell growth in a cell viability assay.

HLE = type: functional, cell-based; settings: Homo sapiens;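 note: growth inhibition of human HLE cells, read out by a cell viability assay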
Description: SANGER: Inhibition of human HLE cell growth in a cell viability assay.

HN = type: functional, cell-based; settings: Homo sapiens
Description: SANGER: Inhibition of human HN cell growth in a cell viability assay.

HOS = type: functional, cell-based; settings: Homo sapiens;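 note: growth inhibition of human HOS cells, read out with a cell viability assay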
Description: SANGER: Inhibition of human HOS cell growth in a cell viability assay.

HuCCT-1 = type: functional, cell-based, HuCCT1; settings: Homo sapiens;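 note: growth inhibition of HuCCT-1 cells, read out by a cell viability assay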
Description: SANGER: Inhibition of human HuCCT1 cell growth in a cell viability assay.

IGROV-1 = type: functional, cell-based; settings: Homo sapiens;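 note: reduction of IGROV-1 cell growth, read out with a viability assay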
Description: SANGER: Inhibition of human IGROV-1 cell growth in a cell viability assay.

JEG-3 = type: functional, cell-based; settings: Homo sapiens;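 note: growth inhibition of human JEG-3 cells, read out with a cell viability assay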
Description: SANGER: Inhibition of human JEG-3 cell growth in a cell viability assay.

KYSE-150 cell line = type: functional, cell-based; settings: Homo sapiens;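 note: growth inhibition of human KYSE-150 cells, read out with a cell viability assay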
Description: SANGER: Inhibition of human KYSE-150 cell growth in a cell viability assay.

MCF7 = type: functional, cell-based; settings: Homo sapiens;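 note: growth inhibition of human MCF7 cells, read out with a cell viability assay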
Description: SANGER: Inhibition of human MCF7 cell growth in a cell viability assay.

MG-63 = type: functional, cell-based; settings: Homo sapiens;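 note: growth inhibition of human MG-63 cells, read out with a cell viability assay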
Description: SANGER: Inhibition of human MG-63 cell growth in a cell viability assay.

NCI-H1623 = type: functional, cell-based; settings: Homo sapiens;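 note: cell viability assay used as the read-out for growth inhibition of NCI-H1623 cells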
Description: SANGER: Inhibition of human NCI-H1623 cell growth in a cell viability assay.

NCI-H1793 = type: functional, cell-based; settings: Homo sapiens;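 note: cell growth inhibition, read out by a cell viability assay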
Description: SANGER: Inhibition of human NCI-H1793 cell growth in a cell viability assay.

NCI-H2030 = type: functional, cell-based; settings: Homo sapiens;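 note: growth inhibition of human NCI-H2030 cells, read out by a cell viability assay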
Description: SANGER: Inhibition of human NCI-H2030 cell growth in a cell viability assay.

NCI-H2228 = type: functional, cell-based; settings: Homo sapiens;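 note: growth inhibition of human NCI-H2228 cells, read out by a cell viability assay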
Description: SANGER: Inhibition of human NCI-H2228 cell growth in a cell viability assay.

NY = type: functional, cell-based; settings: Homo sapiens
Description: SANGER: Inhibition of human NY cell growth in a cell viability assay.

OE19 = type: functional, cell-based; settings: Homo sapiens;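 note: growth inhibition of OE19 cells, measured through a cell viability read-out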
Description: SANGER: Inhibition of human OE19 cell growth in a cell viability assay.

OVCAR-3 = type: functional, cell-based; settings: Homo sapiens;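 note: growth inhibition of human OVCAR-3 cells, determined by a cell viability assay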
Description: SANGER: Inhibition of human OVCAR-3 cell growth in a cell viability assay.

PANC-03-27 = type: functional, cell-based; settings: Homo sapiens
Description: SANGER: Inhibition of human PANC-03-27 cell growth in a cell viability assay.

PANC-08-13 = type: functional, cell-based; settings: Homo sapiens;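 note: cell growth inhibition, measured with a cell viability assay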
Description: SANGER: Inhibition of human PANC-08-13 cell growth in a cell viability assay.

RPMI-2650 = type: functional, cell-based; settings: Homo sapiens
Description: SANGER: Inhibition of human RPMI-2650 cell growth in a cell viability assay.

SBC-5 = type: functional, cell-based; settings: Homo sapiens;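 note: cell viability assay read-out, IC50 is the concentration that inhibits growth of the cells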
Description: SANGER: Inhibition of human SBC-5 cell growth in a cell viability assay.

SK-MEL-24 = type: functional, cell-based; settings: Homo sapiens;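 note: growth inhibition read out by a cell viability assay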
Description: SANGER: Inhibition of human SK-MEL-24 cell growth in a cell viability assay.

SW1710 = type: functional, cell-based; settings: Homo sapiens;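 note: growth inhibition of SW1710 cells, determined with a cell viability assay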
Description: SANGER: Inhibition of human SW1710 cell growth in a cell viability assay.

SW48 = type: functional, cell-based; settings: Homo sapiens;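 note: growth inhibition of SW48 cells, read out with a cell viability assay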
Description: SANGER: Inhibition of human SW48 cell growth in a cell viability assay.

SAOS-2 = type: functional, cell-based; settings: Homo sapiens;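 note: growth inhibition of human Saos-2 cells determined by a cell viability assay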
Description: SANGER: Inhibition of human Saos-2 cell growth in a cell viability assay.

T47D = type: functional, cell-based; settings: Homo sapiens;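 note: growth inhibition of human T47D cells, measured with a cell viability assay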
Description: SANGER: Inhibition of human T47D cell growth in a cell viability assay.

647-V = type: functional, cell-based; settings: Homo sapiens;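 note: growth inhibition of 647-V cells, read out with a cell viability assay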
Description: SANGER: Inhibition of human 647-V cell growth in a cell viability assay.

786-0 = type: functional, cell-based; settings: Homo sapiens
Description: SANGER: Inhibition of human 786-0 cell growth in a cell viability assay.

8305C = type: functional, cell-based; settings: Homo sapiens
Description: SANGER: Inhibition of human 8305C cell growth in a cell viability assay.

BCPAP = type: functional, cell-based; settings: Homo sapiens;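 note: growth inhibition of BCPAP cells, read out in a cell viability assay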
Description: SANGER: Inhibition of human BCPAP cell growth in a cell viability assay.

BFTC-905 = type: functional, cell-based; settings: Homo sapiens
Description: SANGER: Inhibition of human BFTC-905 cell growth in a cell viability assay.

BFTC-909 = type: functional, cell-based; settings: Homo sapiens
Description: SANGER: Inhibition of human BFTC-909 cell growth in a cell viability assay.

CAL-12T = type: functional, cell-based; settings: Homo sapiens;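 note: growth inhibition of human CAL-12T cells, read out with a cell viability assay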
Description: SANGER: Inhibition of human CAL-12T cell growth in a cell viability assay.

CAL-51 = type: functional, cell-based; settings: Homo sapiens;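 note: human CAL-51 cell line, growth inhibition read out via a cell viability assay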
Description: SANGER: Inhibition of human CAL-51 cell growth in a cell viability assay.

U-118-MG = type: functional, cell-based; settings: Homo sapiens
Description: SANGER: Inhibition of human U-118-MG cell growth in a cell viability assay.

UO-31 = type: functional, cell-based; settings: Homo sapiens;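 note: cell viability assay measuring inhibition of cell growth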
Description: SANGER: Inhibition of human U031 cell growth in a cell viability assay.

CHL-1 = type: functional, cell-based; settings: Homo sapiens;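 note: cell growth inhibition, read out with a cell viability assay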
Description: SANGER: Inhibition of human CHL-1 cell growth in a cell viability assay.

CHP-212 = type: functional, cell-based; settings: Homo sapiens
Description: SANGER: Inhibition of human CHP-212 cell growth in a cell viability assay.

COLO-678 = type: functional, cell-based; settings: Homo sapiens
Description: SANGER: Inhibition of human COLO-678 cell growth in a cell viability assay.

Question: For `Nc1ccccc1NC(=O)c1ccc(CNC(=O)OCc2cccnc2)cc1` [ENTINOSTAT], which IC50 (EHEB) is on record?
Answer: The IC50 was 0.926 µM.

Question: And the IC50 (HC-1)?
Answer: Its IC50 is 0.505 µM.

Question: And the IC50 (KMOE-2)?
Answer: Its IC50 is 2.88 µM.

Question: What about the IC50 (KMS-12-PE) of the same molecule?
Answer: The IC50 was > 5 µM.

Question: And the IC50 (LC4-1)?
Answer: The IC50 was 0.84 µM.

Question: What about the IC50 (MDA-MB-134-VI) of the same molecule?
Answer: Its IC50 is 1.29 µM.

Question: What about the IC50 (NB7) of the same molecule?
Answer: The IC50 was > 5 µM.

Question: And the IC50 (NCI-H1436)?
Answer: The IC50 was 4.18 µM.

Question: What about the IC50 (NCI-H510A) of the same molecule?
Answer: Its IC50 is 2.05 µM.

Question: And the IC50 (NCI-H716)?
Answer: The IC50 was > 5 µM.

Question: And the IC50 (P31-FUJ)?
Answer: The IC50 was > 5 µM.

Question: And the IC50 (SR)?
Answer: The IC50 was 0.343 µM.

Question: What about the IC50 (THP-1) of the same molecule?
Answer: The IC50 was > 5 µM.

Question: For `CC1(C)CCC(c2ccc(Cl)cc2)=C(CN2CCN(c3ccc(C(=O)NS(=O)(=O)c4ccc(N[C@H](CCN5CCOCC5)CSc5ccccc5)c(S(=O)(=O)C(F)(F)F)c4)cc3)CC2)C1` [NAVITOCLAX], which IC50 (COLO-741) is on record?
Answer: Its IC50 is > 2 µM.

Question: And the IC50 (CP50-MEL-B)?
Answer: Its IC50 is > 2 µM.

Question: What about the IC50 (Ca-Ski) of the same molecule?
Answer: Its IC50 is > 2 µM.

Question: What about the IC50 (DU-145) of the same molecule?
Answer: The IC50 was 0.899 µM.

Question: What about the IC50 (FTC-133) of the same molecule?
Answer: The IC50 was > 2 µM.

Question: What about the IC50 (GAMG) of the same molecule?
Answer: Its IC50 is > 2 µM.

Question: What about the IC50 (HCC1569) of the same molecule?
Answer: The IC50 was 0.251 µM.

Question: And the IC50 (HCC1954)?
Answer: Its IC50 is > 2 µM.

Question: And the IC50 (HCC38)?
Answer: The IC50 was 0.802 µM.

Question: And the IC50 (HLE)?
Answer: Its IC50 is > 2 µM.

Question: What about the IC50 (HN) of the same molecule?
Answer: Its IC50 is > 2 µM.

Question: What about the IC50 (HOS) of the same molecule?
Answer: Its IC50 is > 2 µM.

Question: And the IC50 (HuCCT-1)?
Answer: The IC50 was > 2 µM.

Question: And the IC50 (IGROV-1)?
Answer: Its IC50 is > 2 µM.

Question: What about the IC50 (JEG-3) of the same molecule?
Answer: The IC50 was > 2 µM.

Question: What about the IC50 (KYSE-150 cell line) of the same molecule?
Answer: The IC50 was > 2 µM.

Question: What about the IC50 (MCF7) of the same molecule?
Answer: The IC50 was > 2 µM.

Question: What about the IC50 (MG-63) of the same molecule?
Answer: The IC50 was > 2 µM.

Question: What about the IC50 (NB7) of the same molecule?
Answer: Its IC50 is > 2 µM.

Question: And the IC50 (NCI-H1623)?
Answer: Its IC50 is > 2 µM.

Question: What about the IC50 (NCI-H1793) of the same molecule?
Answer: The IC50 was > 2 µM.

Question: What about the IC50 (NCI-H2030) of the same molecule?
Answer: The IC50 was > 2 µM.

Question: And the IC50 (NCI-H2228)?
Answer: Its IC50 is > 2 µM.

Question: And the IC50 (NY)?
Answer: Its IC50 is > 2 µM.

Question: And the IC50 (OE19)?
Answer: The IC50 was > 2 µM.

Question: What about the IC50 (OVCAR-3) of the same molecule?
Answer: Its IC50 is > 2 µM.

Question: What about the IC50 (PANC-03-27) of the same molecule?
Answer: The IC50 was > 2 µM.

Question: What about the IC50 (PANC-08-13) of the same molecule?
Answer: Its IC50 is > 2 µM.

Question: What about the IC50 (RPMI-2650) of the same molecule?
Answer: Its IC50 is > 2 µM.

Question: And the IC50 (SBC-5)?
Answer: Its IC50 is > 2 µM.

Question: What about the IC50 (SK-MEL-24) of the same molecule?
Answer: Its IC50 is > 2 µM.

Question: And the IC50 (SW1710)?
Answer: Its IC50 is > 2 µM.

Question: And the IC50 (SW48)?
Answer: The IC50 was > 2 µM.

Question: What about the IC50 (SAOS-2) of the same molecule?
Answer: Its IC50 is > 2 µM.

Question: And the IC50 (T47D)?
Answer: The IC50 was > 2 µM.

Question: And the IC50 (647-V)?
Answer: Its IC50 is > 2 µM.

Question: And the IC50 (786-0)?
Answer: The IC50 was > 2 µM.

Question: And the IC50 (8305C)?
Answer: The IC50 was > 2 µM.

Question: And the IC50 (BCPAP)?
Answer: Its IC50 is > 2 µM.

Question: What about the IC50 (BFTC-905) of the same molecule?
Answer: Its IC50 is > 2 µM.

Question: What about the IC50 (BFTC-909) of the same molecule?
Answer: The IC50 was > 2 µM.

Question: And the IC50 (CAL-12T)?
Answer: Its IC50 is > 2 µM.

Question: And the IC50 (CAL-51)?
Answer: The IC50 was > 2 µM.

Question: And the IC50 (U-118-MG)?
Answer: The IC50 was > 2 µM.

Question: And the IC50 (UO-31)?
Answer: The IC50 was > 2 µM.

Question: And the IC50 (CHL-1)?
Answer: The IC50 was > 2 µM.

Question: And the IC50 (CHP-212)?
Answer: Its IC50 is > 2 µM.

Question: And the IC50 (COLO-678)?
Answer: Its IC50 is > 2 µM.
